From ChEMBL document CHEMBL1240489, “Discovery of N-{1-[3-(3-oxo-2,3-dihydrobenzo[1,4]oxazin-4-yl)propyl]piperidin-4-yl}-2-phenylacetamide (Lu AE51090): an allosteric muscarinic M1 receptor agonist with unprecedented selectivity and procognitive potential” (J Med Chem, 2010)

molecular target: T1, Muscarinic acetylcholine receptor M1 (Homo sapiens, UniProt P11229); experiment: not given
T1 sequence (P11229 whole entry): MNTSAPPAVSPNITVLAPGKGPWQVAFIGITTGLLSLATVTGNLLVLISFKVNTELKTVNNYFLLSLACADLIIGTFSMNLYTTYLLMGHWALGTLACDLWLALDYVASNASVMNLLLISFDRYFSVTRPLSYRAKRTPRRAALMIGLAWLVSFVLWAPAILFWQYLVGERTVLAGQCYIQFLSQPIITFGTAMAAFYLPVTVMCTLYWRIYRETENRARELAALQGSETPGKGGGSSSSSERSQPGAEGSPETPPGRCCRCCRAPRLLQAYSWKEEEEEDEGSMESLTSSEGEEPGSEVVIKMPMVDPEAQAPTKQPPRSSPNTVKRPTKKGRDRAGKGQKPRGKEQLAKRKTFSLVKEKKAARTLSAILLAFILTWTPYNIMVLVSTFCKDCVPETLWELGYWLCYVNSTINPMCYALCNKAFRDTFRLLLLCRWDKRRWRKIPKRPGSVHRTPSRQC

Row | SMILES | EC50 [nM]
1 | O=C(NC1CCN(CCCN2C(=O)COc3ccccc32)CC1)C1CCC1 | 160
2 | Clc1ccc2c(c1)N=C(N1CCNCC1)c1ccccc1N2 [N-DESMETHYLCLOZAPINE] | 18
3 | O=C(CCc1ccccc1)NC1CCN(CCCN2C(=O)COc3ccccc32)CC1 | 970

Next, values leading:

Row | EC50 [nM] | SMILES
4 | 13 | COc1ccc(CC(=O)NC2CCN(CCCN3C(=O)CCc4cc(F)c(F)cc43)CC2)cc1OC
5 | 19 | CCC(=O)NC1CCN(CCCN2C(=O)CCc3c(F)cccc32)CC1
6 | 27 | CCC(=O)NC1CCN(CCCN2C(=O)COc3ccccc32)CC1
7 | 86 | CC(=O)NC1CCN(CCCN2C(=O)CCc3cc(F)c(F)cc32)CC1
8 | 110 | O=C(NC1CCN(CCCN2C(=O)COc3ccccc32)CC1)C1CC1

molecular target: T2, Muscarinic acetylcholine receptor M4 (Homo sapiens, UniProt P08173); experiment: Agonist activity at human muscarinic M4 receptor expressed in BHK-21 cells coexpressing Galpha16 subunit assessed as increase of acetylcholine-induced calcium flux by FLIPR assay; assay type: functional, cell-based
T2 sequence (P08173 whole entry): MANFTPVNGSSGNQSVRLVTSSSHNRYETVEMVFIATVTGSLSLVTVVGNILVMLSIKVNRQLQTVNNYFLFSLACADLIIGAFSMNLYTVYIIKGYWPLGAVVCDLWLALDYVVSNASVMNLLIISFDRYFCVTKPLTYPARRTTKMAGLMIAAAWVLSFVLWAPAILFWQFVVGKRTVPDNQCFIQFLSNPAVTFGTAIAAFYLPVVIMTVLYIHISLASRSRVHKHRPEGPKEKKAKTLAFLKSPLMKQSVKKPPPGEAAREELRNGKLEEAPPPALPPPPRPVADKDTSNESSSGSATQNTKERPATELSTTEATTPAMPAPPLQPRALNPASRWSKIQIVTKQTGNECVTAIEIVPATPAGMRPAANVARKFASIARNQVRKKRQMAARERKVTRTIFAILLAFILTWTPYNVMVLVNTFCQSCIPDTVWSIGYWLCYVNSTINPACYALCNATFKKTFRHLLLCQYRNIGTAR

Row | EC50 [nM] | SMILES
9 | 300 | COc1ccc(CC(=O)NC2CCN(CCCN3C(=O)CCc4cc(F)c(F)cc43)CC2)cc1OC

test system: Muscarinic acetylcholine receptor M1 (Homo sapiens), P11229 [Y381A]; experiment: Agonist activity at human muscarinic M1 receptor Y381A mutant expressed in CHO-K1 cells assessed as increase of acetylcholine-induced calcium flux by FLIPR assay relative to acetylcholine; assay type: functional, cell-based
Sequence (P11229 whole entry Y381A): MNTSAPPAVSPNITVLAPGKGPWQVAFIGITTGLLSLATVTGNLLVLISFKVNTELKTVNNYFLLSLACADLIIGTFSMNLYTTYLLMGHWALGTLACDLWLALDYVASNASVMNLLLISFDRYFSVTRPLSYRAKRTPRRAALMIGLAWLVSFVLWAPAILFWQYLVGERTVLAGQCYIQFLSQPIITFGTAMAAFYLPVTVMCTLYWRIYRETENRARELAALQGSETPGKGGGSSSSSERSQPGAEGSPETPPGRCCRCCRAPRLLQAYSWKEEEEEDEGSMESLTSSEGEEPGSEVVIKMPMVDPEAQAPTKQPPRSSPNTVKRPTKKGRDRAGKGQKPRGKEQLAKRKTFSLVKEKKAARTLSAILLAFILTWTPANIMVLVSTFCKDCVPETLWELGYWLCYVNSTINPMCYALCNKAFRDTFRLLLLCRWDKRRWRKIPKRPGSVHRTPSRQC

Row | SMILES | Emax [%]
10 | Clc1ccc2c(c1)N=C(N1CCNCC1)c1ccccc1N2 [N-DESMETHYLCLOZAPINE] | 72

molecular target: Muscarinic acetylcholine receptor M1 (Homo sapiens, UniProt P11229, Y381A); experiment: not given
Sequence (P11229 whole entry Y381A): as above

Row | SMILES | EC50 [nM]
11 | Clc1ccc2c(c1)N=C(N1CCNCC1)c1ccccc1N2 [N-DESMETHYLCLOZAPINE] | 140

molecular target: T3, Muscarinic acetylcholine receptor M1 (Homo sapiens) (UniProt P11229); experiment: Agonist activity at human muscarinic M1 receptor expressed in CHO-K1 cells assessed as increase of acetylcholine-induced calcium flux by FLIPR assay relative to acetylcholine; assay type: functional, cell-based
T3 sequence (whole entry): T1 sequence (P11229 whole entry)

Row | SMILES | Emax [%]
12 | O=C(NC1CCN(CCCN2C(=O)COc3ccccc32)CC1)C1CCC1 | 37
13 | Clc1ccc2c(c1)N=C(N1CCNCC1)c1ccccc1N2 [N-DESMETHYLCLOZAPINE] | 75
14 | O=C(CCc1ccccc1)NC1CCN(CCCN2C(=O)COc3ccccc32)CC1 | 60

Other lines, results leading:

Row | Emax [%] | SMILES
15 | 91 | COc1ccc(CC(=O)NC2CCN(CCCN3C(=O)CCc4cc(F)c(F)cc43)CC2)cc1OC
16 | 90 | CCC(=O)NC1CCN(CCCN2C(=O)CCc3c(F)cccc32)CC1
17 | 78 | CCC(=O)NC1CCN(CCCN2C(=O)COc3ccccc32)CC1
18 | 76 | CC(=O)NC1CCN(CCCN2C(=O)CCc3cc(F)c(F)cc32)CC1
19 | 74 | O=C(NC1CCN(CCCN2C(=O)COc3ccccc32)CC1)C1CC1

molecular target: T4, Muscarinic acetylcholine receptor M3 (Homo sapiens, UniProt P20309); experiment: Agonist activity at human muscarinic M3 receptor expressed in BHK-21 cells assessed as increase of acetylcholine-induced calcium flux at 10 uM by FLIPR assay relative to acetylcholine; assay type: functional, cell-based
Target sequence in this assay (P20309 whole entry, looked up): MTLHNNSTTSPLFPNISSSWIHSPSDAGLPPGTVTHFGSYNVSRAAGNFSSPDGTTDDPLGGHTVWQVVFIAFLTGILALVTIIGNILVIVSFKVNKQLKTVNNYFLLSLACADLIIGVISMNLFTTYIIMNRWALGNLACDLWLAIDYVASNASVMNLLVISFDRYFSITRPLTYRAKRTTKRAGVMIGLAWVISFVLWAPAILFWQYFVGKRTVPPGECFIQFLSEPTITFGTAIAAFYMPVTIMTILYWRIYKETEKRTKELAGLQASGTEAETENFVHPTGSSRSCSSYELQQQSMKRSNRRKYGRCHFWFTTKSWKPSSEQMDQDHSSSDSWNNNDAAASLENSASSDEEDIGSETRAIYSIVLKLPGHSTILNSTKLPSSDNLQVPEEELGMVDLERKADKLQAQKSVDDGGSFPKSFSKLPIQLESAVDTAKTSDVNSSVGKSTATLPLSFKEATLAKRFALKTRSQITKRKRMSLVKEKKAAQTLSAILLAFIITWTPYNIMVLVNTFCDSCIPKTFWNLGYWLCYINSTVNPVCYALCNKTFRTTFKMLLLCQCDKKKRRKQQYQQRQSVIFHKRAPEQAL

Row | SMILES | Emax [%]
20 | Clc1ccc2c(c1)N=C(N1CCNCC1)c1ccccc1N2 [N-DESMETHYLCLOZAPINE] | 10
21 | COc1ccc(CC(=O)NC2CCN(CCCN3C(=O)CCc4cc(F)c(F)cc43)CC2)cc1OC | 7

molecular target: T5, Muscarinic acetylcholine receptor M5 (Homo sapiens, UniProt P08912); experiment: Agonist activity at human muscarinic M5 receptor expressed in BHK-21 cells assessed as increase of acetylcholine-induced calcium flux by FLIPR assay; assay type: functional, cell-based
T5 sequence (P08912 whole entry): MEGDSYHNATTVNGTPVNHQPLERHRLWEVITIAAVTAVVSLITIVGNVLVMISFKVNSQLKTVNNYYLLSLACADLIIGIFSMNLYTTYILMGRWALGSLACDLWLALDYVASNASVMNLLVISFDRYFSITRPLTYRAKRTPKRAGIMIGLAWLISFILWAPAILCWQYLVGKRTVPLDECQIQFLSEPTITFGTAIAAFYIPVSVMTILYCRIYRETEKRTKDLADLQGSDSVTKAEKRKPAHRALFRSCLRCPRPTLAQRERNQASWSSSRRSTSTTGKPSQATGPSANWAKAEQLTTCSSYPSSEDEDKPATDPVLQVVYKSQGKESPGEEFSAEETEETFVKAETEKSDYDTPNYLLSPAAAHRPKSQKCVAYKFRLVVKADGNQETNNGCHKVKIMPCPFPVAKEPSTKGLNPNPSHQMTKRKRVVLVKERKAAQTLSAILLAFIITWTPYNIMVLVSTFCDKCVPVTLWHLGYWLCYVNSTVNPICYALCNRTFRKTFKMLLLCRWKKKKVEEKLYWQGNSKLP

Row | SMILES | EC50 [nM]
22 | Clc1ccc2c(c1)N=C(N1CCNCC1)c1ccccc1N2 [N-DESMETHYLCLOZAPINE] | 170
23 | COc1ccc(CC(=O)NC2CCN(CCCN3C(=O)CCc4cc(F)c(F)cc43)CC2)cc1OC | 1200

molecular target: T4, Muscarinic acetylcholine receptor M3; experiment: Displacement of [3H]-4-DAMP from human muscarinic M3 receptor expressed in BHK-21 cells; assay type: cell-based
Target sequence in this assay (P20309 whole entry): as the sequence (P20309 whole entry, looked up) above

Row | SMILES | Ki [nM]
24 | Clc1ccc2c(c1)N=C(N1CCNCC1)c1ccccc1N2 [N-DESMETHYLCLOZAPINE] | 90

molecular target: T6, Muscarinic acetylcholine receptor M2 (Homo sapiens) (UniProt P08172); experiment: Agonist activity at human muscarinic M2 receptor expressed in CHO-K1 cells coexpressing Galpha16 subunit assessed as increase of acetylcholine-induced calcium flux at 10 uM by FLIPR assay relative to acetylcholine; assay type: functional, cell-based
T6 sequence (whole entry): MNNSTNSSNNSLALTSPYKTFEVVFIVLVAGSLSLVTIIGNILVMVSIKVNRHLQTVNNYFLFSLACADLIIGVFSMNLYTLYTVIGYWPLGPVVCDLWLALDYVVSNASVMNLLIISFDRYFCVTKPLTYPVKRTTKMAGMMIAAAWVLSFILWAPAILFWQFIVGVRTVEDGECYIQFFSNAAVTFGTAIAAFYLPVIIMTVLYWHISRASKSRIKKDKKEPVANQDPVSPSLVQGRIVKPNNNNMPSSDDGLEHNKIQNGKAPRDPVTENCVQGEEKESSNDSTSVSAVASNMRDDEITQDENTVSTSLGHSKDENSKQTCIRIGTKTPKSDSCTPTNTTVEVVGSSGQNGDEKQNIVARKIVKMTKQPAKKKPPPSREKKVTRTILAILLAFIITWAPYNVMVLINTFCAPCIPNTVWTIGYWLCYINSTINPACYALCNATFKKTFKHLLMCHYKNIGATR

Row | SMILES | Emax [%]
25 | Clc1ccc2c(c1)N=C(N1CCNCC1)c1ccccc1N2 [N-DESMETHYLCLOZAPINE] | 3
26 | COc1ccc(CC(=O)NC2CCN(CCCN3C(=O)CCc4cc(F)c(F)cc43)CC2)cc1OC | 2

molecular target: T7, Muscarinic acetylcholine receptor M4 (Homo sapiens) (UniProt P08173); experiment: Agonist activity at human muscarinic M4 receptor expressed in BHK-21 cells coexpressing Galpha16 subunit assessed as increase of acetylcholine-induced calcium flux by FLIPR assay relative to acetylcholine; assay type: functional, cell-based
T7 sequence (whole entry): T2 sequence (P08173 whole entry)

Row | SMILES | Emax [%]
27 | Clc1ccc2c(c1)N=C(N1CCNCC1)c1ccccc1N2 [N-DESMETHYLCLOZAPINE] | 12
28 | COc1ccc(CC(=O)NC2CCN(CCCN3C(=O)CCc4cc(F)c(F)cc43)CC2)cc1OC | 48

molecular target: T5, Muscarinic acetylcholine receptor M5; experiment: biochemical
Description: Displacement of [3H]-4-DAMP from human muscarinic M5 receptor expressed in BHK-21 cells

Row | SMILES | Ki [nM]
29 | Clc1ccc2c(c1)N=C(N1CCNCC1)c1ccccc1N2 [N-DESMETHYLCLOZAPINE] | 51

molecular target: T8, Muscarinic acetylcholine receptor M5 (Homo sapiens) (UniProt P08912); experiment: Agonist activity at human muscarinic M5 receptor expressed in BHK-21 cells assessed as increase of acetylcholine-induced calcium flux by FLIPR assay relative to acetylcholine; assay type: functional, cell-based
T8 sequence (whole entry): T5 sequence (P08912 whole entry)

Row | SMILES | Emax [%]
30 | Clc1ccc2c(c1)N=C(N1CCNCC1)c1ccccc1N2 [N-DESMETHYLCLOZAPINE] | 34
31 | COc1ccc(CC(=O)NC2CCN(CCCN3C(=O)CCc4cc(F)c(F)cc43)CC2)cc1OC | 52

molecular target: T9, Muscarinic acetylcholine receptor M2 (Homo sapiens, UniProt P08172); experiment: Displacement of [3H]-AFDX-384 from human muscarinic M2 receptor expressed in CHO-K1 cells; assay type: cell-based
T9 sequence (P08172 whole entry): T6 sequence (whole entry)

Row | SMILES | Ki [nM]
32 | Clc1ccc2c(c1)N=C(N1CCNCC1)c1ccccc1N2 [N-DESMETHYLCLOZAPINE] | 250
